Measured values published in PubChem BioAssay (NCI).
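48-hour exposure; five concentrations; linearly interpolated endpoints. TGI is the concentration that stops growth completely.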

Columns and labels:
Assay in all cases: NCI tumour cell line growth inhibition, 48 h
786-0 renal = tested on: 786-0 renal
A549 NSCLC = tested on: A549 NSCLC
ACHN renal = tested on: ACHN renal
BT-549 breast = tested on: BT-549 breast
CAKI-1 renal = tested on: CAKI-1 renal
CCRF-CEM leukemia = tested on: CCRF-CEM leukemia
COLO 205 colon = tested on: COLO 205 colon
DU-145 prostate = tested on: DU-145 prostate
EKVX NSCLC = tested on: EKVX NSCLC
HCC-2998 colon = tested on: HCC-2998 colon
HCT-116 colon = tested on: HCT-116 colon
HCT-15 colon = tested on: HCT-15 colon
HL-60(TB) leukemia = tested on: HL-60(TB) leukemia
HOP-62 NSCLC = tested on: HOP-62 NSCLC
HOP-92 NSCLC = tested on: HOP-92 NSCLC
HS 578T breast = tested on: HS 578T breast
HT29 colon = tested on: HT29 colon
IGROV1 ovarian = tested on: IGROV1 ovarian
K-562 leukemia = tested on: K-562 leukemia
KM12 colon = tested on: KM12 colon
LOX IMVI melanoma = tested on: LOX IMVI melanoma
MALME-3M melanoma = tested on: MALME-3M melanoma
MCF7 breast = tested on: MCF7 breast
MDA-MB-231 breast = tested on: MDA-MB-231 breast
MDA-MB-435 = tested on: MDA-MB-435
MOLT-4 leukemia = tested on: MOLT-4 leukemia
NCI-H226 lung = tested on: NCI-H226 lung
NCI-H23 lung = tested on: NCI-H23 lung
NCI-H460 lung = tested on: NCI-H460 lung
NCI-H522 lung = tested on: NCI-H522 lung
NCI/ADR-RES ovarian = tested on: NCI/ADR-RES ovarian
OVCAR-3 ovarian = tested on: OVCAR-3 ovarian
OVCAR-4 ovarian = tested on: OVCAR-4 ovarian
OVCAR-5 ovarian = tested on: OVCAR-5 ovarian
OVCAR-8 ovarian = tested on: OVCAR-8 ovarian
PC-3 prostate = tested on: PC-3 prostate
RPMI-8226 leukemia = tested on: RPMI-8226 leukemia
RXF 393 renal = tested on: RXF 393 renal
SF-268 CNS = tested on: SF-268 CNS
SF-295 CNS = tested on: SF-295 CNS
SF-539 CNS = tested on: SF-539 CNS
SK-MEL-2 melanoma = tested on: SK-MEL-2 melanoma
SK-MEL-28 melanoma = tested on: SK-MEL-28 melanoma
SK-MEL-5 melanoma = tested on: SK-MEL-5 melanoma
SK-OV-3 ovarian = tested on: SK-OV-3 ovarian
SN12C renal = tested on: SN12C renal
SNB-19 CNS = tested on: SNB-19 CNS
SR leukemia = tested on: SR leukemia
SW-620 colon = tested on: SW-620 colon
T-47D breast = tested on: T-47D breast
TK-10 renal = tested on: TK-10 renal
U251 CNS = tested on: U251 CNS
UACC-257 melanoma = tested on: UACC-257 melanoma
UACC-62 melanoma = tested on: UACC-62 melanoma
UO-31 renal = tested on: UO-31 renal
A498 renal = tested on: A498 renal
M14 melanoma = tested on: M14 melanoma
SNB-75 CNS = tested on: SNB-75 CNS

Measured: TGI

Nc1nc(Cl)cc(NCC2(CO)CC(=O)C2)n1
not listed: A498 renal | M14 melanoma | SNB-75 CNS
> 100 µM: all other assays above

NS(=O)(=O)c1ccc2c(c1)OCCOCCOCCOCCO2
not listed: HOP-92 NSCLC | NCI/ADR-RES ovarian | OVCAR-3 ovarian | OVCAR-4 ovarian | OVCAR-5 ovarian | RXF 393 renal | SK-MEL-2 melanoma | U251 CNS
> 100 µM: all other assays above
